The record followed here is DBAASP.

Molecules are shown by their SMILES. ≈ marks a conversion by molar mass, not a printed value.

Some test systems named below: Enterococcus faecalis VR; Enterococcus faecalis; Enterococcus faecium VR; Enterococcus faecium; Staphylococcus aureus MR; Bacillus subtilis; Candida albicans; Cryptococcus neoformans; Escherichia coli; Pseudomonas putida; Saccharomyces cerevisiae; Salmonella typhimurium; Serratia marcescens; Staphylococcus aureus; Streptococcus mutans; Streptococcus pneumoniae.
Test in all cases: ≥ marks a high value that may be exact or a test limit, other limits are often not marked, values filed in µg/mL are converted to µM
For test [1], the system named is Bacillus subtilis KCTC 3068.
Test [2] deals with Escherichia coli KCTC 1682.
In test [3] the test system is Pseudomonas aeruginosa KCTC 1637.
The subject of test [4] is Salmonella typhimurium KCTC 1926.
Test [5] deals with Staphylococcus aureus KCTC 1621.
Test [6] concerns Staphylococcus epidermidis KCTC 1917.
The test system of test [7] is Acinetobacter baumannii ATCC 19606.
Test [8] has as its system Candida albicans ATCC 90028.
In test [9] the test system is Cryptococcus neoformans ATCC 208821.
Test [10] has as its system Escherichia coli ATCC 25922.
Test [11] concerns Klebsiella pneumoniae ATCC 700603.
Test [12] has as its system Pseudomonas aeruginosa ATCC 27853.
The test system of test [13] is Staphylococcus aureus ATCC 43300.
For test [14], the system named is Enterococcus faecalis ATCC 29212.
In test [15] the test system is Klebsiella pneumoniae ATCC 13883.
In test [16] the test system is Salmonella enterica subsp. enterica serovar Typhimurium ATCC 14028.
For test [17], the system named is Staphylococcus aureus ATCC 25923.
Test [18] concerns Staphylococcus aureus ATCC BAA-44.
Test [19] concerns Staphylococcus epidermidis ATCC 51625.
For test [20], the system named is Streptococcus pyogenes ATCC 19615.

Turning to `CSCC[C@H](NC(=O)[C@H](C)NC(=O)[C@H](CC(C)C)NC(=O)[C@H](CS)NC(=O)[C@H](Cc1cnc[nH]1)NC(=O)[C@H](C)NC(=O)[C@H](C)N)C(=O)N[C@@H](CCCN=C(N)N)C(=O)N[C@@H](CCCN=C(N)N)C(=O)N[C@@H](CCCCN)C(N)=O` [AAHCLAMRRK], the MIC in [1] stood at 15 µM; in the test with Enterococcus faecalis VR, 30 µM; in the test on Enterococcus faecalis, 30 µM; in the test with Enterococcus faecium VR, 7.5 µM; in the test with Enterococcus faecium, 30 µM; in test [2], 30 µM. In addition, the minimal inhibitory concentration (MIC) (in [3]; in [4]; in [5]; in the test on Staphylococcus aureus MR; in test [6]) was 30 µM in each case.

In the case of `CC(C)C[C@H](NC(=O)[C@H](CS)NC(=O)[C@H](CCCN=C(N)N)NC(=O)[C@H](C)NC(=O)[C@H](C)N)C(=O)N[C@@H](CO)C(=O)N[C@@H](CCC(N)=O)C(=O)N[C@@H](CCCN=C(N)N)C(=O)N[C@@H](CCCN=C(N)N)C(=O)N[C@@H](CCCCN)C(N)=O` [AARCLSQRRK], the MIC (in [1]; against Enterococcus faecalis VR; in the test with Enterococcus faecalis; in the test on Enterococcus faecium VR; in the test with Enterococcus faecium; in test [2]) was 30 µM (≈ 35.6 µg/mL) each time. Further, the minimal inhibitory concentration (MIC) in test [3] was found to be 30 µM (≈ 35.6 µg/mL); in test [4] it was 15 µM (≈ 17.8 µg/mL); in [5] it was 30 µM (≈ 35.6 µg/mL); against Staphylococcus aureus MR it was 30 µM (≈ 35.6 µg/mL); in test [6], 15 µM (≈ 17.8 µg/mL).

`CC[C@H](C)[C@H](NC(=O)[C@H](CS)NC(=O)[C@H](Cc1cnc[nH]1)NC(=O)[C@H](CC(C)C)NC(=O)[C@H](C)N)C(=O)N[C@@H](C)C(=O)N[C@@H](CC(C)C)C(=O)N[C@@H](CCCN=C(N)N)C(=O)N[C@@H](CCCCN)C(=O)N[C@@H](CCCCN)C(N)=O` [ALHCIALRKK]: the MIC in test [1] stood at 7.5 µM (≈ 8.64 µg/mL); against Enterococcus faecalis VR it was 15 µM (≈ 17.3 µg/mL); against Enterococcus faecalis it was 15 µM (≈ 17.3 µg/mL); against Enterococcus faecium VR it was 3.8 µM (≈ 4.38 µg/mL); with Enterococcus faecium, 15 µM (≈ 17.3 µg/mL); in test [2], 15 µM (≈ 17.3 µg/mL). For the same molecule, the minimum inhibitory concentration (MIC) is 15 µM (≈ 17.3 µg/mL) in [3]; 15 µM (≈ 17.3 µg/mL) in test [4]; 7.5 µM (≈ 8.64 µg/mL) in test [5]; 7.5 µM (≈ 8.64 µg/mL) against Staphylococcus aureus MR; 15 µM (≈ 17.3 µg/mL) in test [6].

Consider `CC(C)C[C@H](NC(=O)CNC(=O)[C@H](C)NC(=O)[C@@H](N)CCCN=C(N)N)C(=O)N[C@@H](CCC(N)=O)C(=O)N[C@@H](Cc1ccccc1)C(=O)N[C@@H](CC(C)C)C(=O)N[C@H](C(=O)NCC(=O)N[C@@H](CCCN=C(N)N)C(=O)N[C@H](C(=O)N[C@@H](Cc1cnc[nH]1)C(=O)N[C@@H](CCCN=C(N)N)C(=O)N[C@@H](CC(C)C)C(=O)N[C@@H](CC(C)C)C(=O)N[C@@H](CCCN=C(N)N)C(=O)N[C@@H](CCCCN)C(=O)O)C(C)C)C(C)C` [RAGLQFLVGRVHRLLRK], for which the MIC in the test with Bacillus subtilis was found to be 15.8 µM (≈ 32 µg/mL); with Candida albicans it was 7.92 µM (≈ 16 µg/mL); in the test on Cryptococcus neoformans, 7.92 µM (≈ 16 µg/mL); with Escherichia coli it was 15.8 µM (≈ 32 µg/mL); in the test on Pseudomonas putida, 7.92 µM (≈ 16 µg/mL); against Saccharomyces cerevisiae, 7.92 µM (≈ 16 µg/mL). Moreover, the MIC against Salmonella typhimurium was 7.92 µM (≈ 16 µg/mL); in the test with Serratia marcescens, 31.7 µM (≈ 64 µg/mL); against Staphylococcus aureus, 15.8 µM (≈ 32 µg/mL); in the test on Streptococcus mutans, 15.8 µM (≈ 32 µg/mL); against Streptococcus pneumoniae it was 15.8 µM (≈ 32 µg/mL).

For the molecule `CC(C)C[C@H](NC(=O)[C@H](CC(C)C)NC(=O)[C@H](CCCN=C(N)N)NC(=O)[C@H](Cc1cnc[nH]1)NC(=O)[C@@H](NC(=O)[C@H](CCCN=C(N)N)NC(=O)[C@H](CCCN=C(N)N)NC(=O)[C@H](CC(C)C)NC(=O)[C@H](CC(C)C)NC(=O)[C@H](CCCN=C(N)N)NC(=O)[C@H](Cc1cnc[nH]1)NC(=O)[C@@H](NC(=O)[C@H](CCCN=C(N)N)NC(=O)[C@H](CCCN=C(N)N)NC(=O)[C@H](CC(C)C)NC(=O)[C@H](CC(C)C)NC(=O)[C@H](CCCN=C(N)N)NC(=O)[C@H](Cc1cnc[nH]1)NC(=O)[C@@H](NC(=O)[C@@H](N)CCCN=C(N)N)C(C)C)C(C)C)C(C)C)C(=O)N[C@@H](CCCN=C(N)N)C(=O)O` [RVHRLLRRVHRLLRRVHRLLR], the MIC in the test on Bacillus subtilis was 2.85 µM (≈ 8 µg/mL); in the test with Candida albicans, above 91.1 µM; with Cryptococcus neoformans, at least 45.5 µM; against Escherichia coli it was 45.5 µM (≈ 128 µg/mL); with Pseudomonas putida it was 22.8 µM (≈ 64 µg/mL); in the test on Saccharomyces cerevisiae it was at least 91.1 µM. Further, the minimal inhibitory concentration (MIC) with Salmonella typhimurium was 1.42 µM (≈ 4 µg/mL); against Serratia marcescens, 22.8 µM (≈ 64 µg/mL); against Staphylococcus aureus, 22.8 µM (≈ 64 µg/mL); in the test on Streptococcus mutans it was 11.4 µM (≈ 32 µg/mL); against Streptococcus pneumoniae, at least 45.5 µM.

In the case of `NC(N)=NCCC[C@H](NC(=O)[C@H](Cc1cnc[nH]1)NC(=O)[C@H](CO)NC(=O)[C@H](CCCN=C(N)N)NC(=O)[C@H](CCCN=C(N)N)NC(=O)[C@H](CS)NC(=O)[C@H](CCCN=C(N)N)NC(=O)[C@H](Cc1cnc[nH]1)NC(=O)[C@H](Cc1cnc[nH]1)NC(=O)[C@@H](N)CO)C(=O)N[C@@H](CS)C(=O)O` [SHHRCRRSHRC], the MIC is above 22.3 µM in test [7]; 22.3 µM (≈ 32 µg/mL) in test [8]; 22.3 µM (≈ 32 µg/mL) in test [9]; above 22.3 µM in [10]; above 22.3 µM in test [11]; above 22.3 µM in [12]. Also, in test [13], the MIC is above 22.3 µM.

On to `CC(C)C[C@H](NC(=O)[C@H](CCCN=C(N)N)NC(=O)[C@H](CO)NC(=O)[C@H](Cc1cnc[nH]1)NC(=O)[C@H](CCCN=C(N)N)NC(=O)[C@@H]1CCCN1C(=O)[C@H](CCCN=C(N)N)NC(=O)[C@H](Cc1cnc[nH]1)NC(=O)[C@@H]1CCCN1C(=O)[C@H](CO)NC(=O)[C@H](CC(C)C)NC(=O)[C@H](CO)NC(=O)[C@H](CCCN=C(N)N)NC(=O)[C@H](CCCCN)NC(=O)[C@@H](NC(=O)[C@@H](NC(=O)CNC(=O)[C@H](CCCN=C(N)N)NC(=O)[C@H](Cc1cnc[nH]1)NC(=O)[C@H](Cc1c[nH]c2ccccc12)NC(=O)[C@H](Cc1ccccc1)NC(=O)[C@H](Cc1cnc[nH]1)NC(=O)[C@H](Cc1ccc(O)cc1)NC(=O)[C@@H](N)Cc1ccc(O)cc1)C(C)C)[C@@H](C)O)C(=O)N[C@@H](CCC(N)=O)C(=O)N[C@@H](CCCN=C(N)N)C(=O)O` [YYHFWHRGVTKRSLSPHRPRHSRLQR], for which the MIC against Bacillus subtilis was 2 µM (≈ 6.72 µg/mL); in [14], 4 µM (≈ 13.4 µg/mL); with Escherichia coli, 2 µM (≈ 6.72 µg/mL); in test [15], 2 µM (≈ 6.72 µg/mL); in [12] it was 4 µM (≈ 13.4 µg/mL); in test [16] it was 4 µM (≈ 13.4 µg/mL). The MIC in test [17] is 4 µM (≈ 13.4 µg/mL); in test [18], 6 µM (≈ 20.2 µg/mL); in [19], 6 µM (≈ 20.2 µg/mL); in [20] it was 4 µM (≈ 13.4 µg/mL).
